Experimental data taken from ChEMBL document CHEMBL4418485, “Klf5 modulators” (2015).
Calls of active or inactive are those of the source. No cut-off for these calls is given here.

Columns and labels:
HT-29 = test: Reduction in KLF5 protein expression in human HT-29 cells at 10 uM by gel electrophoresis and autoradiography; type: functional, cell-based
DLD-1 [1] = test: Reduction in KLF5 protein expression in human DLD1 cells at 10 uM by gel electrophoresis and autoradiography; type: functional, cell-based
SW-620 = test: Reduction in KLF5 protein expression in human SW620 cells at 10 uM by gel electrophoresis and autoradiography; type: functional, cell-based
HCT-116 = test: Reduction in KLF5 protein expression in human HCT116 cells at 10 uM by gel electrophoresis and autoradiography; type: functional, cell-based
DLD-1 [2] = test: Cell cycle arrest in human DLD1 cells assessed as accumulation at G2/M phase accumulation after 24 hrs (reference value: 46.58 +/- 3.73%); type: functional
DLD-1 [3] = test: Cell cycle arrest in human DLD1 cells assessed as accumulation at subG1 phase accumulation after 24 hrs (reference value: 0.81 +/- 0.13%); type: functional
DLD-1 [4] = test: Cell cycle arrest in human DLD1 cells assessed as accumulation at G1 phase accumulation after 48 hrs (reference value: 32.63 +/- 3.18%); type: functional
DLD-1 [5] = test: Cell cycle arrest in human DLD1 cells assessed as accumulation at S phase accumulation after 48 hrs (reference value: 8.06 +/- 1.35%); type: functional
DLD-1 [6] = test: Cell cycle arrest in human DLD1 cells assessed as accumulation at G1 phase accumulation after 24 hrs (reference value: 34.78 +/- 2.58%); type: functional
IEC-6 = test: Growth inhibition of rat IEC-6 cells relative to control; type: cell-based
DLD-1 [7] = test: Cell cycle arrest in human DLD1 cells assessed as accumulation at subG1 phase accumulation after 48 hrs (reference value: 1.27 +/- 0.15%); type: functional
DLD-1 [8] = test: Cell cycle arrest in human DLD1 cells assessed as accumulation at S phase accumulation after 24 hrs (reference value: 18.05 +/- 1.13%); type: functional
DLD-1 [9] = test: Cell cycle arrest in human DLD1 cells assessed as accumulation at G2/M phase accumulation after 48 hrs (reference value: 58.17 +/- 4.4%); type: functional

SMILES | Activity (HT-29) | Activity (DLD-1 [1]) | Activity (SW-620) | Activity (HCT-116) | Activity (DLD-1 [2]) [%] | Activity (DLD-1 [3]) [%] | Activity (DLD-1 [4]) [%] | Activity (DLD-1 [5]) [%] | Activity (DLD-1 [6]) [%] | growth inhibition (GI) (IEC-6) [%] | Activity (DLD-1 [7]) [%] | Activity (DLD-1 [8]) [%] | Activity (DLD-1 [9]) [%]
CN(C(=O)CNC(=O)/C=C/c1cccc(Cl)c1)C1CCS(=O)(=O)C1 (stereo not given) | inactive | inactive | inactive | inactive |  |  |  |  |  |  |  |  | 
CN(C(=O)CNC(=O)/C=C/c1cccc([N+](=O)[O-])c1)C1CCS(=O)(=O)C1 (stereo not given) | inactive | inactive | inactive | inactive |  |  |  |  |  |  |  |  | 
CN(C(=O)CNC(=O)/C=C/c1cccc(Cl)c1)C1CCS(=O)(=O)CC1 | Active | Active | Active | Active | 29.81 | 7.82 | 31.58 | 19.74 | 44.15 | < 50 | 9.63 | 18.47 | 39.36
CN(C(=O)COC(=O)/C=C/c1cccc([N+](=O)[O-])c1)C1CCS(=O)(=O)C1 (stereo not given) | inactive | inactive | inactive | inactive |  |  |  |  |  |  |  |  | 
